Data set [1] concerns non-castrate hormone-sensitive and bicalutamide-resistant human prostate cancer xenograft models. As to conditions: cited from earlier work.
The target of another data set is AR (Homo sapiens, UniProt P10275). As to conditions: cited from earlier work.
A short description of data set [2]: Plasma kinetics after single subcutaneous dose of rilpivirine nanosuspension with or without rHuPH20 (Example 1). In kind it is in vivo, minipigs. The settings on record: minipig, single SC dose 900 mg/3 mL, N=3. The method, then: Six minipigs with body weights ranging from 20 to 25 kg at the start of the study were used. The minipigs were fasted overnight before dosing. Three minipigs were dosed subcutaneously in the loin with 0.19 mL of the hyaluronidase solution (10,000 U/mL) followed by 900 mg/3 mL of the drug nanosuspension at the same injection site (treatment group A). Three minipigs were dosed subcutaneously in the loin with the 900 mg/3 mL of the control drug suspension (treatment group B—control). The injection volume was 3 mL drug suspension in both treatment groups. Method—Sequential Administration • 1. Flip-off rHuPH20 solution vial flip cap and wipe with isopropyl alcohol wipe. Allow to dry. Attach an 18G transfer needle to a 1 mL syringe. • 2. Draw 0.35 mL into the syringe. • 3. Prime the syringe and set liquid level to 0.25 mL in the syringe. • 4. Remove transfer needle and attach syringe cap to 1 mL syringe. • 5. Mix rilpivirine by horizontally shaking the container 30 times over approximately 25 cm within approximately 10 s (a back and forth arm movement=2 times). Ensure well mixed/fully re-supended. • 6. Flip-off rilpivirine vial flip cap and wipe with isopropyl alcohol wipe. Allow to dry. • 7. Attach 18G transfer needle to 5 mL syringe. • 8. Invert vial and draw >3.2 mL into 5 mL syringe mL (or as much as can be removed from vial). Injecting 1-2 mL of air will facilitate draw. • 9. Detach needle and attach a syringe cap to 5 mL syringe • 10. Invert syringe. Wait 5 minutes for bubbles to settle. • 11. Attach a winged infusion set to the rHuPH20 1 mL syringe. Invert syringe and prime off air so that liquid forms at the tip of the needle. (0.19 mL of rHuPH20 should be in the line) • 12. […] Plasma samples were analysed individually by means of a validated LC-MS/MS method. Pharmacokinetic Data Analysis • The pharmacokinetic profile of the blood plasma samples was evaluated using non-compartmental pharmacokinetic analysis (using individual Cp vs time profiles). Mean plasma concentrations and PK parameters (Cmax, Tmax, t1/2 and AUC values) were measured and the results are provided in Table 1.

Molecules are shown by their SMILES.

AR, sequence (P10275 whole entry): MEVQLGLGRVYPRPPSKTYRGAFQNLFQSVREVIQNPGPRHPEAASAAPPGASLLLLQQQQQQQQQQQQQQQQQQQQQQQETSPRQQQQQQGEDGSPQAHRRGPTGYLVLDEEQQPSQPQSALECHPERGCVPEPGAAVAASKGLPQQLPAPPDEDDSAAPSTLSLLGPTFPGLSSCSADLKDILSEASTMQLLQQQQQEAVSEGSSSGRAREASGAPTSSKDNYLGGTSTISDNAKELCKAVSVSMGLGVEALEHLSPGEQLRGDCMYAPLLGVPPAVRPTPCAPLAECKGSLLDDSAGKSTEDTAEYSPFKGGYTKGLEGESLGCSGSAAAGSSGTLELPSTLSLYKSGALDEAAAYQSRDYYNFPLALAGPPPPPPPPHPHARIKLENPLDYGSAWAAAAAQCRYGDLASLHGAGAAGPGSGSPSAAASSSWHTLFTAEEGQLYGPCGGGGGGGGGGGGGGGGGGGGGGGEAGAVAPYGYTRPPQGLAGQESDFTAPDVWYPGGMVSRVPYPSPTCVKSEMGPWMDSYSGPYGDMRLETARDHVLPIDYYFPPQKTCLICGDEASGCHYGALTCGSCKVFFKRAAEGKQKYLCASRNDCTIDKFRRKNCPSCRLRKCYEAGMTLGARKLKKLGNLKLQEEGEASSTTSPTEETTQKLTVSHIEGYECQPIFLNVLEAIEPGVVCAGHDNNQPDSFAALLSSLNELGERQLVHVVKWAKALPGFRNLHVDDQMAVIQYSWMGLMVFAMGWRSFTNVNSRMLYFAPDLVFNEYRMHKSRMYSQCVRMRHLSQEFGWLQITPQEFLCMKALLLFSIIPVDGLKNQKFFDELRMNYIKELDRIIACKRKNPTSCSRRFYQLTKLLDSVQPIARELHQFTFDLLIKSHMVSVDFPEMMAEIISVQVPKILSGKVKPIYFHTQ

Turning to `CNC(=O)c1ccc(N2C(=S)N(c3cnc(C#N)c(C(F)(F)F)c3)C(=O)C23CCC3)cc1F` [Apalutamide, 4-[7-(6-cyano-5-trifluoromethylpyridin-3-yl)-8-oxo-6-thioxo-5,7-diazaspiro[3.4]oct-5-yl]-2-fluoro-N-methylbenzamide], the tumor response result in data set [1] is listed as “partial or complete tumor regression”.

`CC(O)c1cc(C(=O)N[C@@H](C)Cn2ccc(-c3ccc(C#N)c(Cl)c3)n2)n[nH]1` (stereo partly drawn) [Darolutamide, N-{(2S)-1-[3-(3-chloro-4-cyanophenyl)-1H-pyrazol-1-yl]propan-2-yl}-5-(1-hydroxyethyl)-1H-pyrazole-3-carboxamide]: on AR, the AR binding affinity entry is “high affinity”.

As for `Cc1cc(/C=C/C#N)cc(C)c1Nc1ccnc(Nc2ccc(C#N)cc2)n1` [Rilpivirine, 4-[[4-[[4-[(1E)-2-cyanoethenyl]-2,6-dimethylphenyl]amino]-2-pyrimidinyl]amino]benzonitrile], the Tlast in data set [2] (median) was determined as 2160 h. For the same molecule, the λz in data set [2] came to 0.0009 ± 0.00009 h⁻¹. The AUC(0-inf) (in general, total exposure, with the tail of the curve extrapolated) in data set [2] (plasma) was 27000 ± 3200 ng·h/mL.
